Consider 25 compounds from patent publication US12312370B2, “Immunoproteasome inhibitors” (Principia Biopharma Inc., priority 2017, dated 2025).

Where two headings read alike, the source gives them in different places.

Assay [1] deals with constitutive proteasome β5c unit (Homo sapiens, UniProt P28074). In words: Caliper-based proteasome enzymatic activity assay, β5c. The following applies: human recombinant constitutive proteasome 0.3 nM, FAM-labeled peptide substrate 1 μM, rt 3 h; read-out: β5c subunit IC50. Format: biochemical.
In assay [2] the target is immunoproteasome LMP7/B5i subunit (Homo sapiens, UniProt P28062). In words: Caliper-based proteasome enzymatic activity assay, LMP7. The assay is classed as biochemical.
Setting [3] is: human recombinant immunoproteasome 0.3 nM, FAM-labeled peptide substrate 1 μM, rt 3 h, read-out: LMP7 subunit IC50.

Usually IC50 stands for the concentration that inhibits the measured activity by half. On to `CC1(C)CCN(C(C)(C)C=C(C#N)C(=O)N2CCC[C@H](OC(=O)N[C@@H](Cc3ccc(C(F)(F)F)cc3)B(O)O)C2)C1` [Example 69, ((R)-1-(((((S)-1-(2-cyano-4-(3,3-dimethylpyrrolidin-1-yl)-4-methylpent-2-enoyl)piperidin-3-yl)oxy)carbonyl)amino)-2-(4-(trifluoromethyl)phenyl)ethyl)boronic acid], for which the IC50 in assay [1] worked out at 3370 nM; in assay [2] (setting [3]), 26.1 nM.
With `C=CC(=O)N1CCC[C@H](OC(=O)N[C@@H](Cc2ccc(F)cc2)B(O)O)C1` [Example 70, ((R)-1-(((((S)-1-acryloylpiperidin-3-yl)oxy)carbonyl)amino)-2-(4-fluorophenyl)ethyl)boronic acid], the figures for the IC50 in assay [1] and in assay [2] were > 5000 nM and 106 nM, respectively.
For `C=CC(=O)N1C2CCC1(COC(=O)N[C@@H](CCc1ccccc1)B(O)O)CC2` [Example 71, (R)-(1-((((7-acryloyl-7-azabicyclo[2.2.1]heptan-1-yl)methoxy)carbonyl)amino)-3-phenylpropyl)boronic acid], the IC50 was > 5000 nM in assay [1] and 528 nM in assay [2] (setting [3]).
`CC1(C)CCN(C(C)(C)C=C(C#N)C(=O)N2CCC[C@H](OC(=O)N[C@@H](Cc3ccc(F)cc3)B(O)O)C2)C1` [Example 72, ((R)-1-(((((S)-1-(2-cyano-4-(3,3-dimethylpyrrolidin-1-yl)-4-methylpent-2-enoyl)piperidin-3-yl)oxy)carbonyl)amino)-2-(4-fluorophenyl)ethyl)boronic acid]: the IC50 in assay [1] came to 851 nM; in assay [2] (setting [3]), 5.4 nM.
With `C=C(F)C(=O)N1CCC[C@H](OC(=O)N[C@@H](Cc2ccc(F)cc2)B(O)O)C1` [Example 74, ((R)-1-(((((S)-1-(2-fluoroacryloyl)piperidin-3-yl)oxy)carbonyl)amino)-2-(4-fluorophenyl)ethyl)boronic acid], the half-maximal inhibitory concentration (IC50) was 2100 nM in assay [1] and 149 nM in assay [2] (setting [3]).
The corresponding values for `C=C(F)C(=O)N1C2CCC1(COC(=O)N[C@@H](Cc1ccc(F)cc1)B(O)O)CC2` [Example 75, (R)-(1-((((7-(2-fluoroacryloyl)-7-azabicyclo[2.2.1]heptan-1-yl)methoxy)carbonyl)amino)-2-(4-fluorophenyl)ethyl)boronic acid] are > 5000 nM and 129 nM.
Taken in the same sequence, the figures for `C=CC(=O)N1C2CCC1(COC(=O)N[C@@H](Cc1ccc(F)cc1)B(O)O)CC2` [Example 76, (R)-(1-((((7-acryloyl-7-azabicyclo[2.2.1]heptan-1-yl)methoxy)carbonyl)amino)-2-(4-fluorophenyl)ethyl)boronic acid] were 4030 nM and 21.1 nM.
The corresponding values for `CC(C)(C=C(C#N)C(=O)N1C2CCC1(COC(=O)N[C@@H](CCc1ccccc1)B(O)O)CC2)N1CCC(F)(F)C1` [Example 77, (R)-(1-((((7-(2-cyano-4-(3,3-difluoropyrrolidin-1-yl)-4-methylpent-2-enoyl)-7-azabicyclo[2.2.1]heptan-1-yl)methoxy)carbonyl)amino)-3-phenylpropyl)boronic acid] are 3280 nM and 0.9 nM.
For `CC(C)(C=C(C#N)C(=O)N1CCC[C@H](OC(=O)N[C@@H](Cc2ccccc2)B(O)O)C1)N1CCN(C2COC2)CC1` [Example 79], the half-inhibitory concentration (IC50) in assay [1] worked out at 2780 nM; in assay [2] (setting [3]) it was 5.3 nM.
Taken in the same sequence, the figures for `CN1CCN(C(C)(C)C=C(C#N)C(=O)N2CCC[C@H](OC(=O)N[C@@H](Cc3ccccc3)B(O)O)C2)CC1` [Example 80, ((R)-1-(((((S)-1-(2-cyano-4-methyl-4-(4-methylpiperazin-1-yl)pent-2-enoyl)piperidin-3-yl)oxy)carbonyl)amino)-2-phenylethyl)boronic acid] were 1380 nM and 3.9 nM.
The corresponding values for `CC(C)(C=C(C#N)C(=O)N1C2CCC1(COC(=O)N[C@@H](Cc1ccccc1)B(O)O)CC2)N1CCOCC1` [Example 81] are 2220 nM and 1.8 nM.
The corresponding values for `CC(C)(C=C(C#N)C(=O)N1C2CCC1(COC(=O)N[C@@H](Cc1ccc(F)cc1)B(O)O)CC2)N1CCOCC1` [Example 82, (R)-(1-((((7-(2-cyano-4-methyl-4-morpholinopent-2-enoyl)-7-azabicyclo[2.2.1]heptan-1-yl)methoxy)carbonyl)amino)-2-(4-fluorophenyl)ethyl)boronic acid] are 1380 nM and 1.7 nM.
In the case of `CC(C)(C=C(C#N)C(=O)N1C2CCC1(COC(=O)N[C@@H](Cc1ccc(F)cc1)B(O)O)CC2)N1CCC(F)(F)C1` [Example 84, (R)-(1-((((7-(2-cyano-4-(3,3-difluoropyrrolidin-1-yl)-4-methylpent-2-enoyl)-7-azabicyclo[2.2.1]heptan-1-yl)methoxy)carbonyl)amino)-2-(4-fluorophenyl)ethyl)boronic acid], the 50% inhibitory concentration (IC50) in assay [1] is 279 nM; in assay [2] (setting [3]), 0.7 nM.
Taken in the same sequence, the figures for `C=CC(=O)N1CC(COC(=O)N[C@@H](Cc2ccccc2)B(O)O)C1` [Example 86, (R)-(1-((((1-acryloylazetidin-3-yl)methoxy)carbonyl)amino)-2-phenylethyl)boronic acid] were 218 nM and 59.1 nM.
The corresponding values for `CC(C)(C)/C=C(\C#N)C(=O)N1CC[C@H](OC(=O)N[C@@H](Cc2ccccc2)B(O)O)C1` [Example 87, ((R)-1-(((((S)-1-((E)-2-cyano-4,4-dimethylpent-2-enoyl)pyrrolidin-3-yl)oxy)carbonyl)amino)-2-phenylethyl)boronic acid] are 574 nM and 1.9 nM.
In the case of `CC(C)(C=C(C#N)C(=O)N1CC[C@H](OC(=O)N[C@@H](Cc2ccccc2)B(O)O)C1)N1CCC(F)(F)C1` [Example 89, ((R)-1-(((((S)-1-(2-cyano-4-(3,3-difluoropyrrolidin-1-yl)-4-methylpent-2-enoyl)pyrrolidin-3-yl)oxy)carbonyl)amino)-2-phenylethyl)boronic acid], the figures for the concentration for half-maximal inhibition (IC50) in assay [1] and in assay [2] (setting [3]) were 1140 nM and 1.8 nM, respectively.
Consider `CC(C)(C=C(C#N)C(=O)N1CC[C@@H](OC(=O)N[C@@H](Cc2ccccc2)B(O)O)C1)N1CCC(F)(F)C1` [Example 90, ((R)-1-(((((R)-1-(2-cyano-4-(3,3-difluoropyrrolidin-1-yl)-4-methylpent-2-enoyl)pyrrolidin-3-yl)oxy)carbonyl)amino)-2-phenylethyl)boronic acid], for which the half-maximal inhibitory concentration (IC50) came out at 1590 nM in assay [1] and 3.2 nM in assay [2] (setting [3]).
Taken in the same sequence, the figures for `CC(C)(C=C(C#N)C(=O)N1CC[C@H](COC(=O)N[C@@H](Cc2ccccc2)B(O)O)C1)N1CCC(F)(F)C1` [Example 95, ((R)-1-(((((S)-1-(2-cyano-4-(3,3-difluoropyrrolidin-1-yl)-4-methylpent-2-enoyl)pyrrolidin-3-yl)methoxy)carbonyl)amino)-2-phenylethyl)boronic acid] were 2640 nM and 6.9 nM.
Consider `COC(=O)N1CCN(C(C)(C)C=C(C#N)C(=O)N2CC[C@H](COC(=O)N[C@@H](Cc3ccccc3)B(O)O)C2)CC1` [Example 96, ((R)-1-(((((S)-1-(2-cyano-4-(4-(methoxycarbonyl)piperazin-1-yl)-4-methylpent-2-enoyl)pyrrolidin-3-yl)methoxy)carbonyl)amino)-2-phenylethyl)boronic acid], for which the half-maximal inhibitory concentration (IC50) amounted to 1620 nM in assay [1] and 8.7 nM in assay [2] (setting [3]).
The corresponding values for `CC(C)(C=C(C#N)C(=O)N1CCC[C@H](OC(=O)N[C@@H](Cc2ccccc2)B(O)O)C1)N1CCN2C(=O)OC[C@@H]2C1` [Example 97, ((R)-1-(((((S)-1-(2-cyano-4-methyl-4-((S)-3-oxotetrahydro-3H-oxazolo[3,4-a]pyrazin-7(1H)-yl)pent-2-enoyl)piperidin-3-yl)oxy)carbonyl)amino)-2-phenylethyl)boronic acid] are 1950 nM and 7.7 nM.
The corresponding values for `CC(C)(C=C(C#N)C(=O)N1CCC[C@H](OC(=O)N[C@@H](Cc2ccccc2)B(O)O)C1)N1CCN2C(=O)OC[C@H]2C1` [Example 98, ((R)-1-(((((S)-1-(2-cyano-4-methyl-4-((R)-3-oxotetrahydro-3H-oxazolo[3,4-a]pyrazin-2(1H)-yl)pent-2-enoyl)piperidin-3-yl)oxy)carbonyl)amino)-2-phenylethyl)boronic acid] are 2500 nM and 5.6 nM.
Taken in the same sequence, the figures for `CC(C)(C=C(C#N)C(=O)N1CC[C@H](COC(=O)N[C@@H](Cc2ccccc2)B(O)O)C1)N1CCOCC1` [Example 99, ((R)-1-(((((S)-1-(2-cyano-4-methyl-4-morpholinopent-2-enoyl)pyrrolidin-3-yl)methoxy)carbonyl)amino)-2-phenylethyl)boronic acid] were 3760 nM and 19.3 nM.
For `CC(C)(C=C(C#N)C(=O)N1CC[C@H](NC(=O)N[C@@H](Cc2ccccc2)B(O)O)C1)N1CCC(F)(F)C1` [Example 100, ((R)-1-(3-((S)-1-(2-cyano-4-(3,3-difluoropyrrolidin-1-yl)-4-methylpent-2-enoyl)pyrrolidin-3-yl)ureido)-2-phenylethyl)boronic acid], the IC50 stood at 3560 nM in assay [1] and 206 nM in assay [2] (setting [3]).
For `CC(C)(C=C(C#N)C(=O)N1CCC[C@@H](NC(=O)N[C@@H](Cc2ccccc2)B(O)O)C1)N1CCC(F)(F)C1` [Example 101, ((R)-1-(3-((R)-1-(2-cyano-4-(3,3-difluoropyrrolidin-1-yl)-4-methylpent-2-enoyl)piperidin-3-yl)ureido)-2-phenylethyl)boronic acid], the IC50 in assay [1] was 3920 nM; in assay [2] (setting [3]) it was 145 nM.
Taken in the same sequence, the figures for `C=CC(=O)N1C[C@@H](F)[C@H](OC(=O)N[C@@H](Cc2ccccc2)B(O)O)C1` [Example 102, ((R)-1-(((((3R,4R)-1-acryloyl-4-fluoropyrrolidin-3-yl)oxy)carbonyl)amino)-2-phenylethyl)boronic acid] were 4700 nM and 27.1 nM.
